From patent US9247746B2, “Fungicidal substituted 1-{2-cyclyloxy-2-[2-halo-4-(4-halogen-phenoxy)-phenyl]-ethyl}-1H-[1,2,4]triazole compounds” (BASF SE, priority 2011, dated 2016)

Columns and labels:
Septoria tritici [1] = test: Preventative control of leaf blotch on wheat (Septtr P7), green house; assay type: in vivo; conditions: inoculated 7 days after spraying, untreated control 90
Description: The spray solutions were prepared in several steps: The stock solution were prepared: a mixture of acetone and/or dimethylsulfoxide and the wetting agent/emulsifier Wettol, which is based on ethoxylated alkylphenoles, in a relation (volume) solvent-emulsifier of 99 to 1 was added to 25 mg of the compound to give a total of 5 ml. Water was then added to total volume of 100 ml. This stock solution was diluted with the described solvent-emulsifier-water mixture to the given concentration. G1. Preventative Control of Brown Rust on Wheat Caused by Puccinia recondita (Puccrt P1) G3. Preventative Control of Leaf Blotch on Wheat Caused by Septoria tritici (Septtr P7) Leaves of pot-grown wheat seedling were sprayed to run-off with an aqueous suspension of the active compound or their mixture, prepared as described. The plants were allowed to air-dry. Seven days later the plants were inoculated with an aqueous spore suspension of Septoria tritici. Then the trial plants were immediately transferred to a humid chamber at 18-22° C. and a relative humidity close to 100%. After 4 days the plants were transferred to a chamber with 18-22° C. and a relative humidity close to 70%. After 4 weeks the extent of fungal attack on the leaves was visually assessed as % diseased leaf area.

Septoria tritici [2] = test: Microtest: activity against leaf blotch on wheat (Septtr); assay type: cell-based
Description: The active compounds were formulated separately as a stock solution having a concentration of 10000 ppm in dimethyl sulfoxide. M2. Activity Against Leaf Blotch on Wheat Caused by Septoria tritici(Septtr) The stock solutions were mixed according to the ratio, pipetted onto a micro titer plate (MTP) and diluted with water to the stated concentrations. A spore suspension of Septoria tritici in an aqueous biomalt or yeast-bactopeptone-glycerine solution was then added. The plates were placed in a water vapor-saturated chamber at a temperature of 18° C. Using an absorption photometer, the MTPs were measured at 405 nm 7 days after the inoculation.

Phakopsora pachyrhizi = test: Protective control of soy bean rust on soy beans (Phakpa P2), green house; assay type: in vivo; conditions: inoculated 2 days after spraying, untreated control 90
Description: The spray solutions were prepared in several steps:
The stock solution were prepared: a mixture of acetone and/or dimethylsulfoxide and the wetting agent/emulsifier Wettol, which is based on ethoxylated alkylphenoles, in a relation (volume) solvent-emulsifier of 99 to 1 was added to 25 mg of the compound to give a total of 5 ml. Water was then added to total volume of 100 ml. This stock solution was diluted with the described solvent-emulsifier-water mixture to the given concentration. G1. Preventative Control of Brown Rust on Wheat Caused by Puccinia recondita (Puccrt P1)
G4. Protective Control of Soy Bean Rust on Soy Beans Caused by Phakopsora pachyrhizi (Phakpa P2)
Leaves of pot-grown soy bean seedlings were sprayed to run-off with an aqueous suspension, containing the concentration of active ingredient or their mixture as described below. The plants were allowed to air-dry. The trial plants were cultivated for 2 days in a greenhouse chamber at 23-27° C. and a relative humidity between 60 and 80%. Then the plants were inoculated with spores of Phakopsora pachyrhizi. To ensure the success the artificial inoculation, the plants were transferred to a humid chamber with a relative humidity of about 95% and 20 to 24° C. for 24 h. […] The extent of fungal attack on the leaves was visually assessed as % diseased leaf area.

Row | SMILES | Disease (%) at 16 ppm Septtr P7 (Septoria tritici [1]) | Growth (%) at 0.00012 ppm Septtr (Septoria tritici [2]) | Disease (%) at 63 ppm Phakpa P2 (Phakopsora pachyrhizi)
1 | COC(C)(Cn1cncn1)c1ccc(Oc2ccc(Cl)cc2)cc1Cl (stereo not shown) | 80% | 63% | –
2 | CCC(Cn1cncn1)(OC)c1ccc(Oc2ccc(Cl)cc2)cc1Cl (stereo not shown) | – | – | 60%
3 | CC(Cn1cncn1)(OCc1ccccc1)c1ccc(Oc2ccc(Cl)cc2)cc1Cl (stereo not shown) [I-1, 1-[2-benzyloxy-2-[2-chloro-4-(4-chlorophenoxy)phenyl]propyl]-1,2,4-triazole] | – | 23% | –
